The source of these data is patent publication US7169785B2, “Methods and compositions of novel triazine compounds” (Reddy US Therapeutics, Inc., priority 2001, dated 2007).

Like-named read-outs stand apart in the source and are kept apart here.

Data set [1] concerns IL-6. Nature of the data set: AGE (G-HSA)-induced inflammatory response determined by IL-6 ELISA in HAEC. In kind it is cell-based, human. To be noted: Homo sapiens; for activity at 10 µM: 24 h, Compds tested @ 10 uM, IL6, read-out: % IL6 production compare to AGE stimulation of IL6 (100%). How it is done: Human aortic endothelial cells (HAEC, Clonetics) were cultured according to manufacturer in growth medium (Clonetics): basal medium containing human epidermal growth factor, hydrocortisone, vascular endothelial growth factor, heparin binding growth factor-B, long R3-insulin-like growth factor-1, ascorbic acid, gentamicin/amphotericin and 5% FBS. These cell were allowed to reach at least 90% confluency before subjected to experimental treatments. […] Tumor necrosis factor α was from R&D Systems.
All treatments, compound-added and controls were carried out in serum free media containing 0.2% albumin. Media from all conditions were collected and used for IL-6 ELISA.
IL-6 ELISA was carried out using human IL-6 DuoSet ELISA development kit as described by manufacturer (R&D Systems). Mouse anti-human Il-6 was used as the capture antibody (2 ug/ml) and biotinylated goat anti-human IL-6 (200 ng/ml) was used as the detection antibody. Culture media were incubated with capture antibody (in 96 well) for 2 h at room temperature. Wells were washed three times with wash buffer (0.05% tween-20 in phosphate buffered saline (PBS) pH 7.4) followed by incubation with detection antibody for 2 h at room temperature. Following three washes wells were incubated with Streptavidin-HRP for 20 min. Color development was read at 450 nm in a Microplate reader.
(In general: ELISA stands for enzyme-linked immunosorbent assay.)

In another data set the test system is cells. Nature of the data set: Cytotoxicity / lactate dehydrogenase assay and visual observation of cells. In kind it is cell-based. The procedure: Assays for determining the activity of compounds capable of cytotoxic activity include those taught in herein and others that are well known in the art. In general, to determine if there is cytotoxic activity associated with a compound, cells of a particular type, in a growing stage or a quiescient stage, are treated with the compound of interest. Various parameters of cell death or cessation are used to measure the effects of the compound. For example, the amount of nucleic acid or protein synthesis can be measured or visual observation of the state of the cells, such as release from the substrate, can be used to measure the state of the cells.
An appropriate number of cells are plated in four 96-well plates, one plate for “day 0” and three plates for days 1–3. Cells are treated with at least one compound of the present invention in varying concentrations with and without the apoptosis inducer cisplatin (2 μM) (“+cis” or “−cis”). Unteated cells are also assayed with and without cisplatin. After transfection, the plates are incubated at 37° C. overnight.
An appropriate number of cells are plated in four 96-well plates, one plate for “day 0” and three plates for days 1–3. Cells are treated with at least one compound of the present invention in varying concentrations. The negative control cells have normal media conditions, a duplicate set of wells is treated with the composition in which the compound is provided, but there is no added compound and the positive control cells are treated with the apoptosis inducer cisplatin (2 μM). All of the cells are transfected with a vector having a promoter that is responsive to apoptosis conditions. When apoptosis occurs, the promoter is turned on and the lactic dehydrogenase gene is activated and the enzyme protein is made and active. Activity is easily detected with a color change. After transfection, the plates are incubated at 37° C. overnight.
About 8 mls of warmed alpha MEM LDH lysis buffer (2% Triton X100) and about 8 mls of culture media (½ dilution) are combined. Two 96-well v-bottom plates are prepared, one labeled “lysis” and one labeled “supernatant.” To lyse the cells, about 200 μl Alpha MEM lysis buffer (diluted ½) is added to one test plate from which the supernatant has been removed and added to the plate labeled supernatant. After mixing, about 200 μl of lysed cells are transferred to the lysis plate. Both the lysis and supernatant plates are centrifuged at about 1600 rpm for about 10 min. After centrifugation, about 100 μl of both the supernatant or lysate is transferred to corresponding 96-well flat-bottomed plates.
The assay for cytotoxicity uses the Cytotoxicity Detection Kit (LDH) from Roche Diagnostics Corp. (Indianapolis, Ind.). Using the directionts provided, the dye solution is mixed and added each well of the lysate and supernatant plate and incubated for up to 20–25 min at 15–25° C. in the dark.

Another data set has as its system IL6. Nature of the data set: Inflammation Data of Table 8: IL6 production compared to cells that did not receive compound (stimulus AGE or TNF not given). The format is cell-based. From the text:
Additional bioactivity data for compounds of the present invention are presented in Table 8, where compounds that have at least the activity of effecting cellular proliferation or at least the activity of modulating inflammation activity, as measured by the assays taught herein, are provided. […] The inclusion of compounds in the categories of the Tables disclosed herein, including this Table, is not to be seen as limiting, in that compounds included in such Tables have at least the activity shown for inclusion in the Table and may have more or other activities. Nor are the Tables to be seen as limiting in that these are the only compounds disclosed herein that have that activity, representative compounds are shown in the Tables that have at least that particular activity for inclusion in the Table. One or more compounds disclosed herein have at least an activity that has utility in treatment of disease states. Note that any hydrogen atoms that are required for any atom to attain its usual valence in a structure presented in Table 8, whether a carbon atom or a heteroatom, should be inferred if it is not specifically indicated.

In data set [2] the test system is Human aortic smooth muscle cells. Nature of the data set: Smooth muscle cell proliferation assay (anti-proliferation assay, perlecan). In kind it is cell-based. To be noted: concentration not given.
Data set [3] concerns IL-6. Nature of the data set: TNF-α-induced IL-6 production determined by IL-6 ELISA in HAEC. The format is cell-based, human. To be noted: Homo sapiens, 24 h; Compds tested @ 10 uM; HAEC, IL6; read-out: % IL6 production compare to TNF stimulation of IL6 (100%).

On to `CCN1CCCC1CNc1nc(Nc2cnc3ccccc3c2)nc(NC2CCCCCC2)n1` (stereo not shown) [Compound 3, N^2-cycloheptyl-N^4-[(1-ethyl-2-pyrrolidinyl)methyl]-N^6-(3-quinolinyl)-1,3,5-triazine-2,4,6-triamine], for which the activity at 10 µM in the data set with IL-6 [1] is 1%. Besides, the Toxicity entry in the data set on cells (toxic or cause cell death) is reported as “toxic”.

By inhibition is commonly meant the drop in the measured response relative to a control, in per cent. High values mean strong suppression, low ones little suppression. As for `COc1ccc(Nc2nc(NC3CC3)nc(N(C)C3CCN(C)CC3)n2)cc1F`, testing at 10 µM with IL6 gave an inhibition of 25%. The “Proliferation Data (result in words)” value in data set [2] was “Not active”. For the compound `COc1ccc(Nc2nc(NC3CCCCCC3)nc(N3CCSCC3)n2)cc1Cl` [drawing 999], in the data set on IL6 (concentration not given), the “Inflammation Data (result in words)” value is reported as “Not Active”. For the same compound, in data set [2], the “Proliferation Data (result in words)” value is “Not active”. In the case of `CCN1CCCC1CNc1nc(Nc2ccc(OC)c(F)c2)nc(NC2CC2)n1` (stereo not shown), the inhibition at 10 µM with IL6 amounted to 23%. The “Proliferation Data (result in words)” value in data set [2] is recorded as “Not active”. For `CCN1CCCC1CNc1nc(Nc2ccc(Oc3ccccc3)cc2)nc(NC2CCCCCC2)n1` (stereo not shown) [Compound 36, N^2-cycloheptyl-N^4-[(1-ethyl-2-pyrrolidinyl)methyl]-N^6-(4-phenoxyphenyl)-1,3,5-triazine-2,4,6-triamine], the Toxicity result in the data set with cells (toxic or cause cell death) was “toxic”.

On to `CCN1CCCC1CNc1nc(Nc2ccccc2Br)nc(NC2CCCCCC2)n1` (stereo not shown) [Compound 22, N^2-(2-bromophenyl)-N^4-cycloheptyl-N^6-[(1-ethyl-2-pyrrolidinyl)methyl]-1,3,5-triazine-2,4,6-triamine], for which, in the data set on cells (toxic or cause cell death), the Toxicity entry was “toxic”. Same read-out and setting: to `CCN1CCCC1CNc1nc(Nc2ccc(F)c(F)c2)nc(NC2CCCCCC2)n1` (stereo not shown) [Compound 8, N^2-cycloheptyl-N^4-(3,4-difluorophenyl)-N^6-[(1-ethyl-2-pyrrolidinyl)methyl]-1,3,5-triazine-2,4,6-triamine] belongs “toxic”.

As to `COc1ccc(Nc2nc(OCC3CCCCC3)nc(N(C)C3CCN(C)CC3)n2)cc1Cl` [Compound 119, N-(3-Chloro-4-methoxy-phenyl)-6-cyclohexylmethoxy-N′-methyl-N′-(1-methyl-piperidin-4-yl)-[1,3,5]triazine-2,4-diamine], the Toxicity result with cells is “toxic”. With `CCN1CCCC1CNc1nc(Nc2ccc(Br)cc2)nc(NC2CCCCCC2)n1` (stereo not shown) [Compound 13, N^2-(4-bromophenyl)-N^4-cycloheptyl-N^6-[(1-ethyl-2-pyrrolidinyl)methyl]-1,3,5-triazine-2,4,6-triamine], the Toxicity entry in the data set on cells (toxic or cause cell death) is given as “toxic”. The same measure, in the same setting: under `CCN1CCCC1CNc1nc(Nc2ccccc2Cl)nc(NC2CCCCCC2)n1` (stereo not shown) [Compound 21, N^2-(2-chlorophenyl)-N^4-cycloheptyl-N^6-[(1-ethyl-2-pyrrolidinyl)methyl]-1,3,5-triazine-2,4,6-triamine] stands “toxic”; under `CCN1CCCC1CNc1nc(NC2CCCCCC2)nc(N(C)c2ccc(OC(F)(F)F)cc2)n1` (stereo not shown) [Compound 47, N^2-cycloheptyl-N^4-[(1-ethyl-2-pyrrolidinyl)methyl]-N^6-methyl-N^6-[4-(trifluoromethoxy)phenyl]-1,3,5-triazine-2,4,6-triamine], “toxic”; under `CCN1CCCC1CNc1nc(Nc2ccc(Cl)cc2)nc(NC2CCCCCC2)n1` (stereo not shown) [Compound 12, N^2-(4-chlorophenyl)-N^4-cycloheptyl-N^6-[(1-ethyl-2-pyrrolidinyl)methyl]-1,3,5-triazine-2,4,6-triamine], “toxic”. The IC50 is the midpoint of a concentration-inhibition curve. Take `COc1ccc(Nc2nc(NCCN(C)C)nc(NC3CCCCCC3)n2)cc1F` [Compound 93, N^2-cycloheptyl-N^4-[2-(dimethylamino)ethyl]-N^6-(3-fluoro-4-methoxyphenyl)-1,3,5-triazine-2,4,6-triamine]: the activity at 10 µM amounted to 6% in the data set on IL-6 [1] and 13% in the data set on IL-6 [3]. In addition, in the data set with IL-6 [1] (IL6, unit inferred, read-out: IC50 (AGE stimulation of IL6)), the IC50 was determined as 3.36 µM. The Toxicity entry with cells (toxic or cause cell death) is “toxic”. Take `CCOC(=O)c1ccc(Nc2nc(NCC3CCCN3CC)nc(NC3CCCCCC3)n2)cc1` (stereo not shown) [Compound 14, Ethyl 4-[(4-(cycloheptylamino)-6-{[(1-ethyl-2-pyrrolidinyl)methyl]amino}-1,3,5-triazin-2-yl)-amino]benzoate]: the Toxicity result with cells (toxic or cause cell death) was “toxic”. Consider `COc1ccc(Nc2nc(NC3CC3)nc(N(C)C3CCN(C)CC3)n2)cc1Cl`, for which the “cell death under Inflammation Data” value in the data set with cells (10 uM) is 15%. As for `CCN1CCCC1CNc1nc(Nc2ccc(OC(F)(F)F)cc2)nc(NC2CCCCCC2)n1` (stereo not shown) [Compound 9, N^2-cycloheptyl-N^4-[(1-ethyl-2-pyrrolidinyl)methyl]-N^6-[4-(trifluoromethoxy)phenyl]-1,3,5-triazine-2,4,6-triamine], in the data set on cells (toxic or cause cell death), the Toxicity entry is on record as “toxic”. Still for that read-out and setting: to `CCN1CCCC1CNc1nc(Nc2cccc3cccnc23)nc(NC2CCCCCC2)n1` (stereo not shown) [Compound 5, N^2-cycloheptyl-N^4-[(1-ethyl-2-pyrrolidinyl)methyl]-N^6-(8-quinolinyl)-1,3,5-triazine-2,4,6-triamine] belongs “toxic”. `CCN1CCCC1CNc1nc(Nc2ccc(OC)c(F)c2)nc(Nc2ccc(OC)c(F)c2)n1` (stereo not shown) had an inhibition at 5 µM with IL6 (at 5 uM) of 25%. This compound also displayed an inhibition at 10 µM with IL6 of 35%.

As to `CCN1CCCC1CNc1nc(Nc2ccc(OC)c(Cl)c2)nc(NC2CCCCCC2)n1` (stereo not shown) [Compound 136, N^2-(3-chloro-4-methoxy-phenyl)-N^4-cycloheptyl-N^6-(1-ethyl-pyrrolidin-2-ylmethyl)-1,3,5-triazine-2,4,6-triamine], in the data set with cells (at 3 uM, very toxic), the Toxicity result is given as “Nothing but celldebris at 3 uM verytoxic”.

As to `CCN1CCCC1CNc1nc(Nc2cccc(F)c2)nc(NC2CCCCCC2)n1` (stereo not shown) [Compound 16, N^2-cycloheptyl-N^4-[(1-ethyl-2-pyrrolidinyl)methyl]-N^6-(3-fluorophenyl)-1,3,5-triazine-2,4,6-triamine], the Toxicity result in the data set on cells (toxic or cause cell death) was “toxic”.

For `CCN1CCCC1CNc1nc(Nc2ccc(OC)c(F)c2)nc(N2CCCC3CCCCC32)n1` (stereo not shown) [Compound 59, N^2-[(1-ethyl-2-pyrrolidinyl)methyl]-N^4-(3-fluoro-4-methoxyphenyl)-N^6-octahydro-1(2H)-quinolinyl-1,3,5-triazine-2,4-diamine], in the data set on cells (toxic or cause cell death), the Toxicity result is reported as “toxic”. Still for that read-out and setting: under `CCN1CCCC1CNc1nc(Nc2ccc(Cl)c(Cl)c2)nc(NC2CCCCCC2)n1` (stereo not shown) [Compound 7, N^2-cycloheptyl-N^4-(3,4-dichlorophenyl)-N^6-[(1-ethyl-2-pyrrolidinyl)methyl]-1,3,5-triazine-2,4,6-triamine] stands “toxic”; under `CCN1CCCC1CNc1nc(Nc2ccc(OC)c(F)c2)nc(NC2CCCCCCC2)n1` (stereo not shown) [Compound 54, N^2-cyclooctyl-N^4-[(1-ethyl-2-pyrrolidinyl)methyl]-N^6-(3-fluoro-4-methoxyphenyl)-1,3,5-triazine-2,4,6-triamine], “toxic”.
